Measured values reported in patent US4697022A, “Process for the preparation of optically-active carbazole derivatives, new R- and S-carbazole derivatives and pharmaceutical compositions containing these compounds” (Boehringer Mannheim GmbH, priority 1983, dated 1987).

Legend:
[1] = system: blood vessels (blood pressure); experiment: vasodilation: direct blood pressure lowering after a single i.v. administration in awake spontaneously hypertonic rats (SHR); assay type: in vivo, rat (spontaneously hypertonic; conditions: for ED (30 mmHg): Rattus norvegicus, iv, dosage for lowering of blood pressure by 30 mm.Hg, awake SHR, single i.v. administration, purity >99.4%
Description: (measured as direct blood pressure lowering after a single administration)
In awake, spontaneously hypertonic rats (SHR), catheters were implanted in the arteria femoralis and the vena jugularis. Via the veins, there were injected appropriate dosages of the enantiomers (R-carvedilol and S-carvedilol in dosages of 0.03; 0.1; 0.3; 1.0 and 3 mg/kg. i.v.) and the arterial blood pressure lowering was determined via the arterial pressure catheter (as an expression of the vasodilation). As a measure of the antihypertensive effect, there were calculated the dosages for lowering of the blood pressure by 30 mm.Hg.

isoprenaline tachycardia = experiment: β-blocking action: inhibition of isoprenaline tachycardia in awake rabbits; assay type: in vivo, rabbit; conditions: for ED50: Oryctolagus cuniculus, iv, 50% inhibiting dosage, isoprenaline tachycardia, purity >99.4%, read-out: β-blockade ED50%; for β-blocking properties: in words

Row | Compound | ED (30 mmHg) [1] [mg/kg] | vasodilation: difference factor of the dosages of R- and S-carvedilol ([1]; ratio of ED-30mmHg R-carvedilol to S-carvedilol, i.v., SHR) | ED50 (isoprenaline tachycardia; awake rabbits, i.v.) [mg/kg] | β-blockade: difference factor of the dosages of R- and S-carvedilol (isoprenaline tachycardia; ratio of ED50% R-carvedilol to S-carvedilol, i.v., awake rabbits) | dosage for blood pressure lowering of 30 mm.Hg in comparison to β-blockade (times higher) ([1]; S-carvedilol, ED-30mmHg vs β-blockade ED50%) | β-blocking properties (isoprenaline tachycardia) | β-blocking properties (isoprenaline tachycardia; listed as Example 8)
1 | COc1ccccc1OCCNC[C@@H](O)COc1cccc2[nH]c3ccccc3c12 [R-carvedilol, R-(+)-(1-Carbazol-4-yloxy)-3-[2-(2-methoxyphenoxy)]ethylaminopropan-2-ol] | 2.96 | 11 | 3.98 | 160 |  |  | 
2 | COc1ccccc1OCCNC[C@H](O)COc1cccc2[nH]c3ccccc3c12 [S-carvedilol, S-(-)-(1-Carbazol-4-yloxy)-3-[2-(2-methoxyphenoxy)]ethylaminopropan-2-ol] | 0.27 |  | 0.025 |  | about 10 times | practically only S-carvedilol can be regarded as being a β-blocker | displays β-blocking properties
